Data as given in US8603986B2, “Compounds and methods for modulating cadherin-mediated processes” (McGill University, priority 2005, dated 2013).
“Also recorded” adds a separate entry of the source. Marks after values point to notes of the source that are not given here. Blank lines part the entries; values can stand above or below the sequence they belong to.

Legend:
[1] = biological target: T1, E-cadherin/Fc chimeric protein (Homo sapiens, UniProt P12830); test: Cadherin/Fc binding assay: phage ELISA on E-cadherin/Fc; parameters: key: +: Phage bound to the chimeric protein; −: No phage bound to the chimeric protein
T1 construct: extracellular domain of human E-cadherin (Asp155-Ile707); purchased R&D Systems, Minneapolis, Minn
T1 sequence (P12830 155-707): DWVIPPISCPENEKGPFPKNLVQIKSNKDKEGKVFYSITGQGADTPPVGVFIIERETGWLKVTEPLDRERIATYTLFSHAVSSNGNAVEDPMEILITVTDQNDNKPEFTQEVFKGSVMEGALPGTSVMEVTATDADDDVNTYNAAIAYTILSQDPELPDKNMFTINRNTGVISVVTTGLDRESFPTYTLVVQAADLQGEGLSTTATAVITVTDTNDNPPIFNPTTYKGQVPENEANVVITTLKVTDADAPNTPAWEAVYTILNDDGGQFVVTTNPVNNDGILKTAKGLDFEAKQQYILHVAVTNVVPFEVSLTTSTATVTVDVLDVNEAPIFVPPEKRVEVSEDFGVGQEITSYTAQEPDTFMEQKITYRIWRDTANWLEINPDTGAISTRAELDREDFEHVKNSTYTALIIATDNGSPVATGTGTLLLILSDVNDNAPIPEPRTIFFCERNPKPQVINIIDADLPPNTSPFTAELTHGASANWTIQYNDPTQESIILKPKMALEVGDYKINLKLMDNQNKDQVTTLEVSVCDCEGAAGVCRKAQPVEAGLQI
Source text: (§1) The peptide libraries, Ph.D.-C7C™ and Ph.D.-12™ (New England BioLabs) were used in this study. These libraries are composed of 2×10^9 randomized 7 amino acid sequences flanked by cysteine residues and linear 12 amino acid sequences, respectively. The amino acid sequences are incorporated into the minor coat protein, pIII, of M13 phage. The N-cadherin/Fc chimeric protein (R&D Systems, Minneapolis, Minn.) consists of the extracellular domain of human N-cadherin (Asp160-Ala724) and the Fc region of human IgG1. The E-cadherin/Fc chimeric protein (R&D Systems, Minneapolis, Minn.) consists of the extracellular domain of human E-cadherin (Asp155-Ile707) and the Fc region of human IgG1.
(§2) The binding of each clone to the cadherin/Fc chimeric proteins was confirmed by ELISA. Wells of ProBind microtiter plates (Falcon) were coated with either N-cadherin/Fc or E-cadherin/Fc chimeric protein (100 ng/well) or human IgG1 (which contains the Fc fragment) (100 ng/well). After blocking the nonspecific sites with TBS containing 3% BSA and 1.2 mM CaCl2 for 1 h at 37° C., phage clones (10^9 pfu) diluted in TBST containing 3% BSA and 1.2 mM CaCl2 (100 μl/well). Non-coated wells were also used to exclude any phage that bound to the plastic surface. After 1 h incubation at room temperature, wells were washed 3 times with TBST containing 3% BSA and 1.2 mM CaCl2. M13 phage without any insert were used to control the non-specific binding of the phage itself to the target. Monoclonal anti-M13 antibody conjugated to horseradish peroxidase (Amersham Biosciences, Piscataway, N.J.) was diluted in TBST containing 3% BSA and 1.2 mM CaCl2 (1:2,000) and added to each well (100 μl/well). After 1 h incubation at room temperature, wells were washed three times with TBST containing 3% BSA and 1.2 mM CaCl2 and once with TBS containing 1.2 mM CaCl2. Horseradish peroxidase substrate, TMB (Sigma), was added to each well (100 μl/well and after color development the reaction was stopped by addition of 100 μl 0.5 M sulphuric acid to each well. The intensity of the color was measured at 450 nm.
(§3) The phage clones shown to bind to the N-cadherin/Fc chimeric protein by ELISA were also evaluated for their ability to bind to E-cadherin/Fc and VE-cadherin/Fc chimeric proteins. The phage clones shown to bind to the E-cadherin/Fc chimeric protein by ELISA were also evaluated for their ability to bind to N-cadherin/Fc and VE-cadherin/Fc chimeric proteins. The same ELISA protocol described in the previous section was used to perform this evaluation with the exception that the wells were coated with either 100 ng N-cadherin/Fc, E-cadherin/Fc or VE-cadherin/Fc chimeric protein (R&D Systems, Minneapolis, Minn.).

[2] = biological target: T2, N-cadherin/Fc chimeric protein (Homo sapiens, UniProt P19022); test: Cadherin/Fc binding assay: phage ELISA on N-cadherin/Fc; parameters: key to ELISA Phage Binding to N-Cadherin/Fc Chimeric Protein 1.2 mM calcium / ELISA Phage Binding to N-Cadherin/Fc Chimeric Protein 2 mM EDTA / ELISA Phage Binding to Cadherin/Fc Chimeric Proteins N−: +: Phage bound to the chimeric protein; −: No phage bound to the chimeric protein
T2 construct: extracellular domain of human N-cadherin (Asp160-Ala724); purchased R&D Systems, Minneapolis, Minn
T2 sequence (P19022 160-724): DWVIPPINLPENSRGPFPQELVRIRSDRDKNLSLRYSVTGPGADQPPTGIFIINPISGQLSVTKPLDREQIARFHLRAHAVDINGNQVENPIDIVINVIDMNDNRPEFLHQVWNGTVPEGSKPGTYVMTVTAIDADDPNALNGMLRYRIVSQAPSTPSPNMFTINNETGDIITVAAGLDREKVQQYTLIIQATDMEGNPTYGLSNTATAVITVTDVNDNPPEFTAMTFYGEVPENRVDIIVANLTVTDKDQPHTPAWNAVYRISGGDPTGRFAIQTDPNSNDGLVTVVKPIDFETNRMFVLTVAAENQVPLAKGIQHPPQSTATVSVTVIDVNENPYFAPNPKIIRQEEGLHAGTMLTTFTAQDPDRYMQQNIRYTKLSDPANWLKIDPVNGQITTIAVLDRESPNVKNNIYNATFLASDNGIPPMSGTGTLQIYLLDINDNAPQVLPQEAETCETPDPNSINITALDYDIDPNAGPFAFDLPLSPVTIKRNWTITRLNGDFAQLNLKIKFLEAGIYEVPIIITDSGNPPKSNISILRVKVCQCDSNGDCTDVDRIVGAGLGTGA
Source text: as §1
The binding of each clone to the cadherin/Fc chimeric proteins was confirmed by ELISA. Wells of ProBind microtiter plates (Falcon) were coated with either N-cadherin/Fc or E-cadherin/Fc chimeric protein (100 ng/well) or human IgG1 (which contains the Fc fragment) (100 ng/well). […] Non-coated wells were also used to exclude any phage that bound to the plastic surface. […] M13 phage without any insert were used to control the non-specific binding of the phage itself to the target. […] […] Horseradish peroxidase substrate, TMB (Sigma), was added to each well (100 μl/well and after color development the reaction was stopped by addition of 100 μl 0.5 M sulphuric acid to each well. The intensity of the color was measured at 450 nm.
as §3

[3] = biological target: T3, VE-cadherin/Fc chimeric protein (Homo sapiens, UniProt P33151); test: Cadherin specificity: phage ELISA on VE-cadherin/Fc; assay type: binding; parameters: key: +: Phage bound to the chimeric protein; −: No phage bound to the chimeric protein
T3 construct: purchased R&D Systems, Minneapolis, Minn
Experimental: as §2, §3

[4] = Table 7, Ph.D.-12 clones selected on E-cadherin/Fc
[5] = Table 3, clones selected in the absence of calcium
[6] = Table 6, Ph.D.-C7C clones selected on E-cadherin/Fc
[7] = Table 4, Ph.D.-12 library clones

T3 sequence (P33151 with tags, fused parts or gaps limits assumed, species assumed): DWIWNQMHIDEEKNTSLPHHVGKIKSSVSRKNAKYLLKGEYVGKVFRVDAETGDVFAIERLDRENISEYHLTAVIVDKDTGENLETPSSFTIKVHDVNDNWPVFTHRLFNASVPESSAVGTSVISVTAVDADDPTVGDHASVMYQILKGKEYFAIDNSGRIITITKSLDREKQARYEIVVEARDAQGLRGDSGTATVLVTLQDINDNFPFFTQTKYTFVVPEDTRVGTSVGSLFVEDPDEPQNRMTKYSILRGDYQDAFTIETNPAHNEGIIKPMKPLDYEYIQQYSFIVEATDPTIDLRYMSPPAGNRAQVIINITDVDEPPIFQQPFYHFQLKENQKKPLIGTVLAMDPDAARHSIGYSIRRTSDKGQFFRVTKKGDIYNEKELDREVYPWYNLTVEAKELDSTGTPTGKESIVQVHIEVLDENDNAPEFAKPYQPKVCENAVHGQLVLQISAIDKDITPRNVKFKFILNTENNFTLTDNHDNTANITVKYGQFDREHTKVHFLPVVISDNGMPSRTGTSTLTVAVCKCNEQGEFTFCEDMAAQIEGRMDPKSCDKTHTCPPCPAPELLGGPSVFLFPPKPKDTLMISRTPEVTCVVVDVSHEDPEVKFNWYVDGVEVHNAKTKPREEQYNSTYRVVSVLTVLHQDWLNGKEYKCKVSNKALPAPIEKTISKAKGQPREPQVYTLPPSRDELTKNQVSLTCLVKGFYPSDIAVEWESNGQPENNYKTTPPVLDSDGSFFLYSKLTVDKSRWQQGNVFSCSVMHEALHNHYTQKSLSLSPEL

Sequence: WYVCVGAHC [NoCa1]
- ELISA Phage Binding to Cadherin/Fc Chimeric Proteins E− [1, 5]: −**
- phage binding to N-cadherin/Fc chimeric protein by ELISA [2]: good ELISA signal; also recorded: strong ELISA signal
- ELISA Phage Binding to N-Cadherin/Fc Chimeric Protein 1.2 mM calcium [2, 5]: +*
- ELISA Phage Binding to N-Cadherin/Fc Chimeric Protein 2 mM EDTA [2, 5]: +
- ELISA Phage Binding to Cadherin/Fc Chimeric Proteins VE− [3, 5]: −

Sequence: WQFCYAQHC [Ec 2]
- ELISA Phage Binding to Cadherin/Fc Chimeric Proteins E− [1, 6]: +
- ELISA Phage Binding to Cadherin/Fc Chimeric Proteins N− [2, 6]: +
- ELISA Phage Binding to Cadherin/Fc Chimeric Proteins VE− [3, 6]: −

Sequence: QWEIRYPWPSMG [Ec 12-a1]
- ELISA Phage Binding to Cadherin/Fc Chimeric Proteins E− [1, 4]: +
- ELISA Phage Binding to Cadherin/Fc Chimeric Proteins N− [2, 4]: +
- ELISA Phage Binding to Cadherin/Fc Chimeric Proteins VE− [3, 4]: −

Sequence: KWELTYFANSFP [Nc 12-a3]
- ELISA Phage Binding to Cadherin/Fc Chimeric Proteins E− [1, 7]: −
- ELISA Phage Binding to N-Cadherin/Fc Chimeric Protein 1.2 mM calcium [2, 7]: +
- ELISA Phage Binding to N-Cadherin/Fc Chimeric Protein 2 mM EDTA [2, 7]: +
- ELISA Phage Binding to Cadherin/Fc Chimeric Proteins VE− [3, 7]: −

Sequence: WTMCYPDTC [Ec 7]
- ELISA Phage Binding to Cadherin/Fc Chimeric Proteins E− [1, 6]: +*
- ELISA Phage Binding to Cadherin/Fc Chimeric Proteins N− [2, 6]: +
- ELISA Phage Binding to Cadherin/Fc Chimeric Proteins VE− [3, 6]: −**

Sequence: WTWHWPPCC [Ec a22]
- ELISA Phage Binding to Cadherin/Fc Chimeric Proteins E− [1, 6]: +
- ELISA Phage Binding to Cadherin/Fc Chimeric Proteins N− [2, 6]: +
- ELISA Phage Binding to Cadherin/Fc Chimeric Proteins VE− [3, 6]: −

Sequence: WQVCVGAHC [NoCa11]
- ELISA Phage Binding to Cadherin/Fc Chimeric Proteins E− [1, 5]: −
- phage binding to N-cadherin/Fc chimeric protein by ELISA [2]: good ELISA signal; also recorded: strong ELISA signal
- ELISA Phage Binding to N-Cadherin/Fc Chimeric Protein 1.2 mM calcium [2, 5]: +
- ELISA Phage Binding to N-Cadherin/Fc Chimeric Protein 2 mM EDTA [2, 5]: +
- ELISA Phage Binding to Cadherin/Fc Chimeric Proteins VE− [3, 5]: −

Second part, the sequence after the results:

- ELISA Phage Binding to Cadherin/Fc Chimeric Proteins E− [1, 4]: +*
- ELISA Phage Binding to Cadherin/Fc Chimeric Proteins N− [2, 4]: +
- ELISA Phage Binding to Cadherin/Fc Chimeric Proteins VE− [3, 4]: −**
Sequence: SWTWHFPESPPP [Ec 12-01]

- ELISA Phage Binding to Cadherin/Fc Chimeric Proteins E− [1, 4]: +
- ELISA Phage Binding to Cadherin/Fc Chimeric Proteins N− [2, 4]: +
- ELISA Phage Binding to Cadherin/Fc Chimeric Proteins VE− [3, 4]: −
Sequence: EWDFFWPPTQTP [Ec 12-19]

- ELISA Phage Binding to Cadherin/Fc Chimeric Proteins E− [1, 4]: +
- ELISA Phage Binding to Cadherin/Fc Chimeric Proteins N− [2, 4]: +
- ELISA Phage Binding to Cadherin/Fc Chimeric Proteins VE− [3, 4]: −
Sequence: QWQLHWPASKQA [Ec 12-11]

- ELISA Phage Binding to Cadherin/Fc Chimeric Proteins E− [1, 4]: +
- ELISA Phage Binding to Cadherin/Fc Chimeric Proteins N− [2, 4]: +
- ELISA Phage Binding to Cadherin/Fc Chimeric Proteins VE− [3, 4]: −
Sequence: EWQYHWPTLQSR [Ec 12-22]

- ELISA Phage Binding to Cadherin/Fc Chimeric Proteins E− [1, 4]: +
- ELISA Phage Binding to Cadherin/Fc Chimeric Proteins N− [2, 4]: +
- ELISA Phage Binding to Cadherin/Fc Chimeric Proteins VE− [3, 4]: −
Sequence: SWTFYWPDAQLG [Ec 12-06]
